Experimental data taken from patent US12456543B2, “Enzymes” (UNIVERSITY COURT OF THE UNIVERSITY OF ST ANDREWS, priority 2018, dated 2025).

Columns and labels:
[1] = Halogenase activity of Dsg205 and Dsg701 against 600 member compound library, LC-MSMS assay; assay type: biochemical; conditions: substrate of Dsg205/Dsg701, enzyme not specified
[2] = tested on: Dsg407; test: Substrates accepted by Dsg407; conditions: purified Dsg407, NaBr or NaI, pH 7.2
[3] = tested on: tryptophan 5-halogenase PyrH; conditions: natural substrate tryptophan; based on product production; cited from earlier work
[4] = tested on: tryptophan 7-halogenase RebH; conditions: natural substrate tryptophan; based on product production; cited from earlier work

## Nc1cccc2cccnc12 [8-quinolamine]
[1]
  conversion of substrate, estimated: ~75%

## N[C@H](Cc1c[nH]c2ccccc12)C(=O)O [D-tryptophan]
[2]
  accepted as substrate by Dsg407: accepts

## c1cc2cc[nH]c2cn1 [Dsg 6-azaindole, 6-azaindole]
[2]
  accepted as substrate by Dsg407: also a substrate of Dsg407

## N[C@@H](Cc1c[nH]c2ccccc12)C(=O)O [L-tryptophan]
[2]
  accepted as substrate by Dsg407: not

## N[C@@H](Cc1c[nH]c2ccccc12)C(=O)O [tryptophan]
[3]
  Kcat: 0.0417 ± 0.0067 s⁻¹
[4]
  Km: 18.7 ± 1.3 µM
